ChEMBL document CHEMBL4765293, “Specific stabilization of promoter G-Quadruplex DNA by 2,6-disubstituted amidoanthracene-9,10-dione based dimeric distamycin analogues and their selective cancer cell cytotoxicity” (Eur J Med Chem, 2020)
Active and inactive are the calls of the source. The rule behind the calls is not given here.

Experiments:
Quadruplex DNA [1] = test: Binding affinity to c-KIT2 G4-quadruplex DNA (unknown orgin) assessed increase in melting temperature measured after 12 hrs by thermal denaturation based spectrophotometric analysis; assay type: nucleic-acid assay
Quadruplex DNA [2] = test: Binding affinity to human telomeric H21 G4 quadruplex DNA in presence of KCl assessed as increase in fluorescence intensity at 0.2 uM by fluorescence spectroscopic analysis; assay type: nucleic-acid assay
Quadruplex DNA [3] = test: Binding affinity to human telomeric H21 G4-quadruplex DNA assessed as slight change in ellipticity of the CD signatures and topology in presence NaCl of by circular dichroism spectroscopy; assay type: nucleic-acid assay
HeLa [4] = test: Cytotoxicity against human HeLa cells assessed as cell viability incubated for 72 hr by MTT assay; assay type: functional, cell-based
Homo sapiens = organism: Homo sapiens; test: Binding affinity to c-MYC ds DNA (unknown origin) assessed as slight change in ellipticity of the CD signatures and topology by circular dichroism spectroscopy
HEK-293T = test: Cytotoxicity against human HEK293T cells assessed as cell viability incubated for 72 hr by MTT assay; assay type: functional, cell-based
[5] = Binding affinity to c-MYC ds DNA (unknown orgin) by UV- vis spectrophotometric analysis
Quadruplex DNA [6] = test: Induction of stabilization of c-MYC G-quadruplex DNA template sequence (unknown orgin) assessed as inhibition of Taq polymerase mediated DNA polymerization at high concentration in presence K+ measured after 30 mins by Taq DNA polymerase stop assay; assay type: nucleic-acid assay
Quadruplex DNA [7] = test: Binding affinity to Human telomeric H21 G4 quadruplex DNA (unknown origin) in presence of KCl by UV- vis spectrophotometric analysis; assay type: nucleic-acid assay
Quadruplex DNA [8] = test: Binding affinity to c-MYC G4-quadruplex DNA (unknown orgin) assessed increase in melting temperature measured after 12 hrs by thermal denaturation based spectrophotometric analysis; assay type: nucleic-acid assay
Quadruplex DNA [9] = test: Binding affinity to c-MYC G4-quadruplex DNA (unknown orgin) assessed as slight change in ellipticity of the CD signatures and topology by circular dichroism spectroscopy; assay type: nucleic-acid assay
Calf thymus DNA [10] = test: Binding affinity to calf thymus duplex DNA by UV- vis spectrophotometric analysis; assay type: nucleic-acid assay; details: Bos taurus
Calf thymus DNA [11] = test: Binding affinity to calf thymus duplex DNA assessed as slight change in ellipticity of the CD signatures and topology by circular dichroism spectroscopy; assay type: nucleic-acid assay; details: Bos taurus
Quadruplex DNA [12] = test: Binding affinity to c-KIT1 G4-quadruplex DNA (unknown orgin) assessed increase in melting temperature measured after 12 hrs by thermal denaturation based spectrophotometric analysis; assay type: nucleic-acid assay
Quadruplex DNA [13] = test: Binding affinity to c-KIT2 G4-quadruplex DNA (unknown origin) by UV- vis spectrophotometric analysis; assay type: nucleic-acid assay
Quadruplex DNA [14] = test: Binding affinity to c-MYC G4-quadruplex DNA (unknown origin) assessed as fluorescence life time by fluorescence spectroscopic analysis relative to compound alone group; assay type: nucleic-acid assay
Quadruplex DNA [15] = test: Binding affinity to human c-KIT1 G4-quadruplex DNA (unknown origin) by UV- vis spectrophotometric analysis; assay type: nucleic-acid assay
Quadruplex DNA [16] = test: Binding affinity to c-Myc G4-quadruplex DNA (unknown origin) by UV- vis spectrophotometric analysis; assay type: nucleic-acid assay
Quadruplex DNA [17] = test: Binding affinity to human telomeric H21 G4 quadruplex DNA in presence of NaCl assessed as increase in fluorescence intensity at 0.2 uM by fluorescence spectroscopic analysis; assay type: nucleic-acid assay
Quadruplex DNA [18] = test: Binding affinity to human telomeric H21 G4 quadruplex DNA in presence of NaCl by UV- vis spectrophotometric analysis; assay type: nucleic-acid assay
Quadruplex DNA [19] = test: Binding affinity to c-MYC G4 quadruplex (unknown origin) assessed as increase in fluorescence intensity at 0.2 uM by fluorescence spectroscopic analysis; assay type: nucleic-acid assay
HeLa [20] = test: Induction of apoptosis in human HeLa cells assessed as nuclear condensation and fragmentation at 7 uM measured after 24 hrs by DAPI staining based confocal laser scanning microscopy analysis; assay type: functional, cell-based
NIH3T3 = test: Cytotoxicity against mouse NIH3T3 cells assessed as cell viability incubated for 72 hr by MTT assay; assay type: cell-based; details: NIH3T3, 72 h
Quadruplex DNA [21] = test: Binding affinity to c-MYC G4-quadruplex DNA (unknown orgin) at 100 uM by ethidium bromide displacement assay; assay type: nucleic-acid assay
[22] = Cytotoxicity against human HDFa cells assessed as cell viability incubated for 72 hr by MTT assay; assay type: cell-based
HeLa [23] = test: Induction of apoptotic cell death in human HeLa cells assessed as change in nuclear morphology at 5 to 7 uM after 12 hrs by acridine orange/ethidium bromide staining based fluorescence microscopy; assay type: functional; details: dose 5-7 µM
Quadruplex DNA [24] = test: Binding affinity to human telomeric H21 G4-quadruplex DNA assessed as slight change in ellipticity of the CD signatures and topology in presence KCl of by circular dichroism spectroscopy; assay type: nucleic-acid assay
Quadruplex DNA [25] = test: Binding affinity to c-KIT2 G4 quadruplex (unknown origin) assessed as increase in fluorescence intensity at 0.2 uM by fluorescence spectroscopic analysis; assay type: nucleic-acid assay
Quadruplex DNA [26] = test: Binding affinity to c-KIT1 G4 quadruplex (unknown origin) assessed as increase in fluorescence intensity at 0.2 uM by fluorescence spectroscopic analysis; assay type: nucleic-acid assay
[27] = Selectivity index, binding affinity to c-MYC G4 quadruplex DNA (unknown origin) to binding affinity c-MYC ds DNA (unknown origin)
HeLa [28] = test: Induction of apoptosis in human HeLa cells assessed as nuclear condensation and fragmentation at 5 uM measured after 24 hrs by DAPI staining based confocal laser scanning microscopy analysis; assay type: functional, cell-based
Quadruplex DNA [29] = test: Binding affinity to c-MYC G4 quadruplex DNA (unknown orgin) by cyclic voltammetry; assay type: nucleic-acid assay
HeLa [30] = test: Induction of apoptotic cell death in human HeLa cells assessed as change in nuclear morphology at 3 to 5 uM after 12 hrs by acridine orange/ethidium bromide staining based fluorescence microscopy; assay type: functional; details: dose 3-5 µM
HeLa [31] = test: Induction of apoptotic cell death in human HeLa cells assessed as morphological changes from the spindle-shaped cells to round-shaped at 50 to 200 uM measured after 24 hrs by acridine orange/ethidium bromide staining based fluorescence microscopy; assay type: functional; details: dose 50-200 µM
HeLa [32] = test: Induction of apoptotic cell death in human HeLa cells assessed as morphological changes from the spindle-shaped cells to round-shaped at 2 to 10 uM measured after 24 hrs by acridine orange/ethidium bromide staining based fluorescence microscopy; assay type: functional
HeLa [33] = test: Induction of apoptosis in human HeLa cells at 7 uM after 24 to 48 hrs by annexin V/PI- staining based flow cytometric analysis; assay type: functional, cell-based
HeLa [34] = test: Induction of apoptosis in human HeLa cells at 100 uM after 24 to 48 hrs by annexin V/PI- staining based flow cytometric analysis; assay type: functional, cell-based; details: time 24-48 hrs
HeLa [35] = test: Induction of apoptosis in human HeLa cells at 5 uM after 24 to 48 hrs by annexin V/PI- staining based flow cytometric analysis; assay type: functional, cell-based

| SMILES | ΔTm (Quadruplex DNA [1]) | Activity (Quadruplex DNA [2]) | IC50 (HeLa [4]) | IC50 (HEK-293T) | Ka [5] | Activity (Quadruplex DNA [6]) | Ka (Quadruplex DNA [7]) | ΔTm (Quadruplex DNA [8]) | Ka (Calf thymus DNA [10]) | ΔTm (Quadruplex DNA [12]) | Ka (Quadruplex DNA [13]) | Time (Quadruplex DNA [14]) | Ka (Quadruplex DNA [15]) | Ka (Quadruplex DNA [16]) | Activity (Quadruplex DNA [17]) | Ka (Quadruplex DNA [18]) | Activity (Quadruplex DNA [19]) | Activity (Quadruplex DNA [25]) | Activity (Quadruplex DNA [26]) | Selectivity Index [27] | further results |
| --- | --- | --- | --- | --- | --- | --- | --- | --- | --- | --- | --- | --- | --- | --- | --- | --- | --- | --- | --- | --- | --- |
| Cn1cc(NC(=O)c2cccn2C)cc1C(=O)NCCC[N+](C)(C)CC(=O)Nc1ccc2c(c1)C(=O)c1ccc(NC(=O)C[N+](C)(C)CCCNC(=O)c3cc(NC(=O)c4cccn4C)cn3C)cc1C2=O | 5.1 °C | Active | 7.4 µM | 19 µM | 0.018 10^6/M | Active | 0.3 10^6/M | 7.4 °C | 0.016 10^6/M | 7.9 °C | 1.8 10^6/M | 0.55 nanoseconds | 1.3 10^6/M | 2.8 10^6/M | Active | 0.6 10^6/M | Active | Active | Active | 175 | Activity (Quadruplex DNA [3]): Active; Activity (Homo sapiens): Active; Activity (Quadruplex DNA [9]): Active; Activity (Calf thymus DNA [11]): Active; Activity (HeLa [20]): Active; IC50 (NIH3T3): > 100 µM; Activity (Quadruplex DNA [21]): Active; IC50 [22]: > 100 µM; Activity (HeLa [23]): Active; Activity (Quadruplex DNA [24]): Active |
| C[N+](C)(C)CC(=O)Nc1ccc2c(c1)C(=O)c1ccc(NC(=O)C[N+](C)(C)C)cc1C2=O |  | Active |  |  | 0.05 10^6/M |  | 0.07 10^6/M |  | 0.06 10^6/M |  | 0.09 10^6/M |  | 0.11 10^6/M | 0.16 10^6/M | Active | 0.05 10^6/M |  | Active | Active | 3.2 |  |
| Cn1cc(NC(=O)c2cc(NC(=O)c3cccn3C)cn2C)cc1C(=O)NCCC[N+](C)(C)CC(=O)Nc1ccc2c(c1)C(=O)c1ccc(NC(=O)C[N+](C)(C)CCCNC(=O)c3cc(NC(=O)c4cc(NC(=O)c5cccn5C)cn4C)cn3C)cc1C2=O | 6.8 °C | Active | 5.3 µM | 15 µM | 0.012 10^6/M | Active | 1.1 10^6/M | 11.1 °C | 0.01 10^6/M | 9.9 °C | 4.1 10^6/M | 0.37 nanoseconds | 3.1 10^6/M | 3.8 10^6/M | Active | 0.6 10^6/M | Active | Active | Active | 380 | Activity (HeLa [28]): Active; Activity (Quadruplex DNA [3]): Active; Activity (Homo sapiens): Active; Activity (Quadruplex DNA [29]): Active; Activity (Quadruplex DNA [9]): Active; Activity (Calf thymus DNA [11]): Active; Activity (HeLa [30]): Active; IC50 (NIH3T3): > 100 µM; Activity (Quadruplex DNA [21]): Active; IC50 [22]: > 100 µM; Activity (Quadruplex DNA [24]): Active |
| Cn1cccc1C(=O)NCCC[N+](C)(C)CC(=O)Nc1ccc2c(c1)C(=O)c1ccc(NC(=O)C[N+](C)(C)CCCNC(=O)c3cccn3C)cc1C2=O.[Cl-].[Cl-] | 1.2 °C | Active | > 100 µM | 43 µM | 0.025 10^6/M | Active | 0.5 10^6/M | 3.2 °C | 0.02 10^6/M | 4.7 °C | 0.8 10^6/M | 0.54 nanoseconds | 0.6 10^6/M | 1.4 10^6/M | Active | 0.6 10^6/M | Active | Active | Active | 70 | Activity (HeLa [31]): Active; AC50 (HeLa [32]): Active; AC50 (HeLa [33]): Active; Activity (HeLa [34]): Active; AC50 (HeLa [35]): Active; IC50 (NIH3T3): > 100 µM; IC50 [22]: > 100 µM |
